Like-named read-outs stand apart in the source and are kept apart here.
Columns and labels:
rat CB2 = rat CB2 (Rattus norvegicus (Rat), UniProt Q9QZN9); assay: rat CB2 radioligand binding assay ([3H]CP 55,940 competition)
Method: (§1) The CB1 and CB2 radioligand binding assays described herein are utilized to ascertain the affinity of compounds of the present application for binding to CB2 relative to CB1 receptors.
HEK293 cells stably expressing rat CB2 receptors were grown until a confluent monolayer was formed. Briefly, the cells were harvested and homogenized in TE buffer (50 mM Tris-HCl, 1 mM MgCl2, and 1 mM EDTA) using a polytron for 2×10 second bursts in the presence of protease inhibitors, followed by centrifugation at 45,000×g for 20 minutes. The final membrane pellet was re-homogenized in storage buffer (50 mM Tris-HCl, 1 mM MgCl2, and 1 mM EDTA and 10% sucrose) and frozen at −78° C. until used. Saturation binding reactions were initiated by the addition of membrane preparation (protein concentration of 20 μg/well for rat CB2) into wells of a deep well plate containing [^3H]CP 55,940 (120 Ci/mmol, a nonselective CB agonist commercially available from Tocris) in assay buffer (50 mM Tris, 2.5 mM EDTA, 5 mM MgCl2, and 0.5 mg/mL fatty acid free BSA, pH 7.4). After 45 min incubation at 30° C., binding reaction was terminated by the addition of 300 μl/well of cold assay buffer followed by rapid vacuum filtration through a UniFilter-96 GF/C filter plates (pre-soaked in 1 mg/mL BSA for 2 hours). The bound activity was counted in a TopCount using Microscint-20. Saturation experiments were conducted with twelve concentrations of [^3H]CP 55,940 ranging from 0.01 to 8 nM. Competition experiments were conducted with 0.5 nM [^3H]CP 55,940 and five concentrations of displacing ligands selected from the range of 0.01 nM to […] addition of 10 μM unlabeled CP 55,940 (Tocris, Ellisville, Mo.) was used to assess nonspecific binding.

human CB2 receptors = human CB2 receptors (Homo sapiens (Human), UniProt P34972); assay: human CB2 radioligand binding assay ([3H]CP 55,940 competition)
Sequence of human CB2 receptors (P34972 whole entry): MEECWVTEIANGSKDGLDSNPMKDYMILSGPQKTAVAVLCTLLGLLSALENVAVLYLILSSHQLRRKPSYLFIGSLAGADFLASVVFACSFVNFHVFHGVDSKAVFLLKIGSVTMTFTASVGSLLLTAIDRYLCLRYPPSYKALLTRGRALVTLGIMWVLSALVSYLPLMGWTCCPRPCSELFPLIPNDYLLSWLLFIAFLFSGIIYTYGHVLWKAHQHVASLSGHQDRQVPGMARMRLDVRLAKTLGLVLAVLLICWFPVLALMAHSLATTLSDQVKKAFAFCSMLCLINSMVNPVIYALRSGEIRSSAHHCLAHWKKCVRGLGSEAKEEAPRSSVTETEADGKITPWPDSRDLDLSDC
Method: as §1
HEK293 cells stably expressing human CB2 receptors were grown until a confluent monolayer was formed. Briefly, the cells were harvested and homogenized in TE buffer (50 mM Tris-HCl, 1 mM MgCl2, and 1 mM EDTA) using a polytron for 2×10 second bursts in the presence of protease inhibitors, followed by centrifugation at 45,000×g for 20 minutes. The final membrane pellet was re-homogenized in storage buffer (50 mM Tris-HCl, 1 mM MgCl2, and 1 mM EDTA and 10% sucrose) and frozen at −78° C. until used. Saturation binding reactions were initiated by the addition of membrane preparation (protein concentration of 5 μg/well for human CB2) into wells of a deep well plate containing [^3H]CP 55,940 (120 Ci/mmol, a nonselective CB agonist commercially available from Tocris) in assay buffer (50 mM Tris, 2.5 mM EDTA, 5 mM MgCl2, and 0.5 mg/mL fatty acid free BSA, pH 7.4). After 90 min incubation at 30° C., binding reaction was terminated by the addition of 300 μL/well of cold assay buffer followed by rapid vacuum filtration through a UniFilter-96 GF/C filter plates (pre-soaked in 1 mg/mL BSA for 2 hours). The bound activity was counted in a TopCount using Microscint-20. Saturation experiments were conducted with twelve concentrations of [^3H]CP 55,940 ranging from 0.01 to 8 nM. Competition experiments were conducted with 0.5 nM [^3H]CP 55,940 and five concentrations (0.01 nM to 10 μM) of displacing ligands. The addition of 10 μM unlabeled CP 55,940 (Tocris, Ellisville, Mo.) was used to assess nonspecific binding.

[1] = HEK293 membranes, 0.5 nM [3H]CP 55,940, read-out: rat CB2 (Ki)
[2] = HEK293 membranes, 0.5 nM [3H]CP 55,940, read-out: human CB2 (Ki)

Sequence of rat CB2 (Q9QZN9 whole entry): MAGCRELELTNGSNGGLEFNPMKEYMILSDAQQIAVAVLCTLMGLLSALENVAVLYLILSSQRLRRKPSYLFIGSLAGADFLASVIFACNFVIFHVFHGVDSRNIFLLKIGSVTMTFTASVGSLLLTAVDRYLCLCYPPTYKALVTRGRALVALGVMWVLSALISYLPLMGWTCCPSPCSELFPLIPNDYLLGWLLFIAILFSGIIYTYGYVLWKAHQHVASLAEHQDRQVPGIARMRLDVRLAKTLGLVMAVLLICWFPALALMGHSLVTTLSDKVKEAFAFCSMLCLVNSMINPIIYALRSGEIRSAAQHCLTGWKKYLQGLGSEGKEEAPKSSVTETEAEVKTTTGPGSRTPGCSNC

| Structure (SMILES) | Ki (rat CB2; [1]) [nM] | Ki (human CB2 receptors; [2]) [nM] | Ki (rat CB2) [nM] | Ki (human CB2 receptors) [nM] |
| --- | --- | --- | --- | --- |
| CCCCn1nc(C(C)(C)C)s/c1=N\C(=O)c1cc(C(F)(F)F)ccc1ON=C(N)c1ccc(F)cc1 [Example 182, 2-({[amino(4-fluorophenyl)methylene]amino}oxy)-N-[(2Z)-3-butyl-5-tert-butyl-1,3,4-thiadiazol-2(3H)-ylidene]-5-(trifluoromethyl)benzamide] | 7 | 21 |  |  |
| CCCCn1/c(=N/C(=O)c2cc(C(F)(F)F)ccc2NNC(=O)c2cccnc2)cc(C(C)(C)C)n1C [Example 199, N-[(3E)-2-butyl-5-tert-butyl-1-methyl-1,2-dihydro-3H-pyrazol-3-ylidene]-2-[2-(pyridin-3-ylcarbonyl)hydrazino]-5-(trifluoromethyl)benzamide] | 2.2 | 2.5 |  |  |
| CCCCn1nc(C(C)(C)C)s/c1=N\C(=O)c1cc(C(F)(F)F)ccc1O/N=C(\C)C(C)(C)C [Example 150, N-[(2Z)-3-butyl-5-tert-butyl-1,3,4-thiadiazol-2(3H)-ylidene]-5-(trifluoromethyl)-2-({[(1E)-1,2,2-trimethylpropylidene]amino}oxy)benzamide] | 283 | 216 |  |  |
| CC(C)(C)NOc1ccc(C(F)(F)F)cc1C(=O)/N=c1\sc(C(C)(C)C)nn1CC1CCCCO1 (stereo not drawn) [Example 147, 2-[(tert-butylamino)oxy]-N-[(2Z)-5-tert-butyl-3-(tetrahydro-2H-pyran-2-ylmethyl)-1,3,4-thiadiazol-2(3H)-ylidene]-5-(trifluoromethyl)benzamide] | 0.7 | 1.7 |  |  |
| CCCCn1/c(=N/C(=O)c2cc(C(F)(F)F)ccc2NNC(=O)c2ccncc2)cc(C(C)(C)C)n1C [Example 200, N-[(3E)-2-butyl-5-tert-butyl-1-methyl-1,2-dihydro-3H-pyrazol-3-ylidene]-2-(2-isonicotinoylhydrazino)-5-(trifluoromethyl)benzamide] | 1.3 | 0.7 |  |  |
| Cn1c(C(C)(C)C)c/c(=N\C(=O)c2cc(C(F)(F)F)ccc2ONC(C)(C)C)n1CC1CC1 [Example 146, 2-[(tert-butylamino)oxy]-N-[(3E)-5-tert-butyl-2-(cyclopropylmethyl)-1-methyl-1,2-dihydro-3H-pyrazol-3-ylidene]-5-(trifluoromethyl)benzamide] |  |  | 14 | 54 |
| CCCCn1/c(=N/C(=O)c2cc(C(F)(F)F)ccc2O/N=C(\C)C(F)(F)F)cc(C(C)(C)C)n1C [Example 194, N-[(3E)-2-butyl-5-tert-butyl-1-methyl-1,2-dihydro-3H-pyrazol-3-ylidene]-5-(trifluoromethyl)-2-({[(1E)-2,2,2-trifluoro-1-methylethylidene]amino}oxy)benzamide] | 40 | 12 |  |  |
| Cn1c(C(C)(C)C)c/c(=N\C(=O)c2cc(C(F)(F)F)ccc2ONC(C)(C)C)n1CCC(F)(F)F [Example 156, 2-[(tert-butylamino)oxy]-N-[(3E)-5-tert-butyl-1-methyl-2-(3,3,3-trifluoropropyl)-1,2-dihydro-3H-pyrazol-3-ylidene]-5-(trifluoromethyl)benzamide] |  |  | 10 | 68 |
| CC(C)(C)NOc1ccc(C(F)(F)F)cc1C(=O)/N=c1\sc(C(C)(C)C)nn1CC1CCO1 (stereo not drawn) [Example 177, 2-[(tert-butylamino)oxy]-N-[(2Z)-5-tert-butyl-3-(oxetan-2-ylmethyl)-1,3,4-thiadiazol-2(3H)-ylidene]-5-(trifluoromethyl)benzamide] | 7.3 | 15 |  |  |
| CCCCn1nc(C(C)(C)C)s/c1=N\C(=O)c1cc(C(F)(F)F)ccc1N/N=C\c1cccc(C)n1 [Example 35, N-[(2Z)-3-butyl-5-tert-butyl-1,3,4-thiadiazol-2(3H)-ylidene]-2-{(2Z)-2-[(6-methylpyridin-2-yl)methylene]hydrazino}-5-(trifluoromethyl)benzamide] |  |  | 20 | 185 |
| CCCCn1nc(C(C)(C)C)s/c1=N\C(=O)c1cc(C(F)(F)F)ccc1NNC(=O)c1ccncc1 [Example 191, N-[(2Z)-3-butyl-5-tert-butyl-1,3,4-thiadiazol-2(3H)-ylidene]-2-(2-isonicotinoylhydrazino)-5-(trifluoromethyl)benzamide] | 0.9 | 0.8 |  |  |
| CCCCn1nc(C(C)(C)C)s/c1=N\C(=O)c1ccc(C(F)(F)F)cc1ONC(C)(C)C [Example 170, 2-[(tert-butylamino)oxy]-N-[(2Z)-3-butyl-5-tert-butyl-1,3,4-thiadiazol-2(3H)-ylidene]-4-(trifluoromethyl)benzamide] | 6.3 | 127 |  |  |
| CCCCn1nc(C(C)(C)C)s/c1=N\C(=O)c1cc(C(F)(F)F)ccc1ON=C(C)N [Example 185, 2-({[1-aminoethylidene]amino}oxy)-N-[(2Z)-3-butyl-5-tert-butyl-1,3,4-thiadiazol-2(3H)-ylidene]-5-(trifluoromethyl)benzamide] | 3.6 | 16 |  |  |
| CC(C)(C)NOc1ccc(C(F)(F)F)cc1C(=O)/N=c1\sc(C(C)(C)C)nn1CC1CC1 [Example 163, 2-[(tert-butylamino)oxy]-N-[(2Z)-5-tert-butyl-3-(cyclopropylmethyl)-1,3,4-thiadiazol-2(3H)-ylidene]-5-(trifluoromethyl)benzamide] | 3 | 16 |  |  |
| CCCCn1nc(C(C)(C)C)s/c1=N\C(=O)c1cc(C(F)(F)F)ccc1ON(C)C [Example 171, N-[(2Z)-3-butyl-5-tert-butyl-1,3,4-thiadiazol-2(3H)-ylidene]-2-[(dimethylamino)oxy]-5-(trifluoromethyl)benzamide] |  |  | 4.9 | 21 |
| CCCCn1nc(C(C)(C)C)s/c1=N\C(=O)c1cc(C(F)(F)F)ccc1ONC(=O)C(C)(C)C [Example 169, N-[(2Z)-3-butyl-5-tert-butyl-1,3,4-thiadiazol-2(3H)-ylidene]-2-{[(2,2-dimethylpropanoyl)amino]oxy}-5-(trifluoromethyl)benzamide] | 0.6 | 0.6 |  |  |
| CCCCn1nc(C(C)(C)C)s/c1=N\C(=O)c1cc(C(F)(F)F)ccc1NNC(=O)OC(C)(C)C [Example 181, tert-butyl 2-[2-({[(2Z)-3-butyl-5-tert-butyl-1,3,4-thiadiazol-2(3H)-ylidene]amino}carbonyl)-4-(trifluoromethyl)phenyl]hydrazinecarboxylate] |  |  | 1.7 | 1 |
| CCCCn1/c(=N/C(=O)c2cc(C(F)(F)F)ccc2ONC(C)C)cc(C(C)(C)C)n1C [Example 159, N-[(3E)-2-butyl-5-tert-butyl-1-methyl-1,2-dihydro-3H-pyrazol-3-ylidene]-2-[(isopropylamino)oxy]-5-(trifluoromethyl)benzamide] | 5.2 | 16 |  |  |
| COCCn1nc(C(C)(C)C)s/c1=N\C(=O)c1cc(C(F)(F)F)ccc1ONC(C)(C)C [Example 158, 2-[(tert-butylamino)oxy]-N-[(2Z)-5-tert-butyl-3-(2-methoxyethyl)-1,3,4-thiadiazol-2(3H)-ylidene]-5-(trifluoromethyl)benzamide] | 3.6 | 39 |  |  |
| CCCCn1nc(C(C)(C)C)s/c1=N\C(=O)c1cc(C(F)(F)F)ccc1ON=C(N)c1cccnc1 [Example 204, 2-({[amino(pyridin-3-yl)methylene]amino}oxy)-N-[(2Z)-3-butyl-5-tert-butyl-1,3,4-thiadiazol-2(3H)-ylidene]-5-(trifluoromethyl)benzamide] | 13 | 87 |  |  |
| CC(C)(C)NOc1ccc(C(F)(F)F)cc1C(=O)/N=c1\sc(C(C)(C)C)nn1CCCCF [Example 174, 2-[(tert-butylamino)oxy]-N-[(2Z)-5-tert-butyl-3-(4-fluorobutyl)-1,3,4-thiadiazol-2(3H)-ylidene]-5-(trifluoromethyl)benzamide] | 1.1 | 6.2 |  |  |

Source: US8859596B2, “Compounds as cannabinoid receptor ligands” (priority 2008, dated 2014)
